Experiment: Study for confirmation of conversion to brexpiprazole in a buffer (stability of the evaluation compounds)
Type: physicochemical
Details: for Concentration of brexpiprazole formed / Concentration of evaluation compound decreased: in buffer, average of duplicate; for Concentration of brexpiprazole formed: 60-minute reaction sample; for Concentration of evaluation compound decreased: decrease in 60-minute vs 0-minute reaction sample; for stability in the buffer / conversion to brexpiprazole (in words): Tris-hydrochloric acid buffer pH 7.5, 37° C., 60 minutes, 1 μmol/L
Procedure: The conversion from the evaluation compounds to brexpiprazole in a buffer (i.e., the stability of the evaluation compounds) was evaluated.
The Example 1 compound was dissolved in acetonitrile/water (1:1, v/v) to 10 mmol/L and further diluted with acetonitrile/water (1:1, v/v) to 100 μmol/L for use.
The other Example compounds and the Reference Example 5 compound to Reference Example 7 compound were each dissolved in DMSO to 10 mmol/L and further diluted with acetonitrile to 100 μmol/L for use, except for the following compounds.
The compounds of Examples 52, 95, 96, 117, and 130 (EX 52, EX 95, EX 96, EX 117, and EX 130) were dissolved in acetonitrile/water (8:2, v/v) to 10 mmol/L and further diluted with acetonitrile to 100 μmol/L for use.
The compound of Example 97 (EX 97) was dissolved in acetonitrile/water (8:2, v/v) to 10 mmol/L and further diluted with acetonitrile/water (8:2, v/v) to 100 μmol/L for use.
The compounds of Examples 15 and 116 (EX 15 and EX 116) were dissolved in DMSO to 1 mmol/L and further diluted with acetonitrile to 100 μmol/L for use.
The reaction was conducted by preparing each reaction solution such that the final concentration of each component was as follows. The test was conducted in duplicate.
For the compounds of Examples 1 to 8, 10 to 19, 26 to 27, 37, 50, 87 to 89, 91, 116, 121, 123, 150, and 151 (EX 1 to EX 8, EX 10 to EX 19, EX 26 to EX 27, EX 37, EX 50, EX 87 to EX 89, EX 91, EX 116, EX 121, EX 123, EX 150, and EX 151), and the compounds of Reference Examples 5 to 7 (REX 5 to REX 7), the reaction solution without the evaluation compound (198 μl) was pre-incubated at 37° C. for 3 minutes, and then each of the evaluation compound solutions (2 μl) was added and stirred; thereafter, the reaction was started at 37° C. At 0 minutes or 60 minutes after the start of the reaction, the reaction was stopped by adding and stirring a reaction stop solution (1000 μl) composed of acetonitrile/isopropanol (4:1, v/v) containing internal standard substances. However, the 0-minute reaction sample (198 μl) was prepared by adding the evaluation compound (2 μl) after adding the reaction stop solution (1000 μl). The samples after stopping the reaction were used as the measurement samples. Calibration curve samples with the same composition were prepared (final concentrations of the evaluation compounds and brexpiprazole: 0.01, 0.1, and 1 μmol/L, with the proviso that for the evaluation compounds only, the 0-minute reaction samples were also used as calibration curve samples for 1 μmol/L).
For the compounds of Examples 24 to 25, 28 to 29, 32 to 36, 40 to 49, 51 to 60, 62 to 64, 66 to 77, 80 to 86, 90, 92 to 111, 113, 115, 117 to 120, 122, 124 to 130, 132 to 147, and 152 to 160 (EX 24 to EX 25, EX 28 to EX 29, EX 32 to EX 36, EX 40 to EX 49, EX 51 to EX 60, EX 62 to EX 64, EX 66 to EX 77, EX 80 to EX 86, EX 90, EX 92 to EX 111, EX 113, EX 115, EX 117 to EX 120, EX 122, EX 124 to EX 130, EX 132 to EX 147, and EX 152 to EX 160), the reaction solution without the evaluation compound (148.5 μl) was pre-incubated at 37° C. for 3 minutes, and then each of the evaluation compound solutions (1.5 μl) was added and stirred; thereafter, the reaction was started at 37° C. At 0 minutes or 60 minutes after the start of the reaction, the reaction was stopped by adding and stirring a reaction stop solution (600 μl) composed of acetonitrile/isopropanol (4:1, v/v) containing internal standard substances. However, the 0-minute reaction sample (148.5 μl) was prepared by adding the evaluation compound (1.5 μl) after adding the reaction stop solution (600 μl). The samples after stopping the reaction were used as the measurement samples. Calibration curve samples with the same composition were prepared (final concentrations of the evaluation compounds and brexpiprazole: 0.01, 0.1, and 1 μmol/L, with the proviso that for the evaluation compounds only, the 0-minute reaction samples were also used as calibration curve samples for 1 μmol/L). […]

Row | SMILES | Concentration of brexpiprazole formed [µM] | Concentration of evaluation compound decreased [µM] | stability in the buffer / conversion to brexpiprazole (in words)
1 | CC(C)NC(=O)CCCCCCCCC(=O)OCOP(=O)([O-])OC[N+]1(CCCCOc2ccc3ccc(=O)[nH]c3c2)CCN(c2cccc3sccc23)CC1 [EX 76, (4-(benzo[b]thiophen-4-yl)-1-(4-((2-oxo-1,2-dihydroquinolin-7-yl)oxy)butyl)piperazin-1-ium-1-yl)methyl (((10-(isopropylamino)-10-oxodecanoyl)oxy)methyl) phosphate] | 0.00 | 0.00 | 
2 | CC(C)(C)OC(=O)CCCC(=O)OCOP(=O)([O-])OC[N+]1(CCCCOc2ccc3ccc(=O)[nH]c3c2)CCN(c2cccc3sccc23)CC1 [EX 69, (4-(benzo[b]thiophen-4-yl)-1-(4-((2-oxo-1,2-dihydroquinolin-7-yl)oxy)butyl)piperazin-1-ium-1-yl)methyl (((5-(tert-butoxy)-5-oxopentanoyl)oxy)methyl) phosphate] | 0.00 | -0.01 | 
3 | O=c1ccc2ccc(OCCCC[N+]3(COP(=O)([O-])OCC#CCCl)CCN(c4cccc5sccc45)CC3)cc2[nH]1 [EX 63, (4-(benzo[b]thiophen-4-yl)-1-(4-((2-oxo-1,2-dihydroquinolin-7-yl)oxy)butyl)piperazin-1-ium-1-yl)methyl (4-chlorobut-2-yn-1-yl) phosphate] | 0.00 | 0.02 | 
4 | CCCCOP(=O)([O-])OC[N+]1(CCCCOc2ccc3ccc(=O)[nH]c3c2)CCN(c2cccc3sccc23)CC1 [EX 89, (4-(benzo[b]thiophen-4-yl)-1-(4-((2-oxo-1,2-dihydroquinolin-7-yl)oxy)butyl)piperazin-1-ium-1-yl)methyl butyl phosphate] | 0.00 | -0.07 | 
5 | O=c1ccc2ccc(OCCCC[N+]3(COP(=O)([O-])OCCCO)CCN(c4cccc5sccc45)CC3)cc2[nH]1 [EX 6, (4-(benzo[b]thiophen-4-yl)-1-(4-((2-oxo-1,2-dihydroquinolin-7-yl)oxy)butyl)piperazin-1-ium-1-yl)methyl (3-hydroxypropyl) phosphate] | 0.00 | -0.11 | 
6 | CCCCCC(=O)OC[N+]1(CCCCOc2ccc3ccc(=O)[nH]c3c2)CCN(c2cccc3sccc23)CC1 [Reference Example 6, reference compound] |  |  | clearly degraded to brexpiprazole
7 | COc1ccc(C(=O)OCCCCCCOP(=O)([O-])OC[N+]2(CCCCOc3ccc4ccc(=O)[nH]c4c3)CCN(c3cccc4sccc34)CC2)cc1 [EX 58, (4-(benzo[b]thiophen-4-yl)-1-(4-((2-oxo-1,2-dihydroquinolin-7-yl)oxy)butyl)piperazin-1-ium-1-yl)methyl (6-((4-methoxybenzoyl)oxy)hexyl) phosphate] | 0.00 | 0.04 | 
8 | CC1(C)OCC(COC(=O)CCCCC(=O)OCOP(=O)([O-])OC[N+]2(CCCCOc3ccc4ccc(=O)[nH]c4c3)CCN(c3cccc4sccc34)CC2)CO1 [EX 75, (4-(benzo[b]thiophen-4-yl)-1-(4-((2-oxo-1,2-dihydroquinolin-7-yl)oxy)butyl)piperazin-1-ium-1-yl)methyl (((6-((2,2-dimethyl-1.3-dioxan-5-yl)methoxy)-6-oxohexanoyl)oxy)methyl) phosphate] | 0.00 | 0.07 | 
9 | O=C(OCCCCCCOP(=O)([O-])OC[N+]1(CCCCOc2ccc3ccc(=O)[nH]c3c2)CCN(c2cccc3sccc23)CC1)c1ccc([N+](=O)[O-])cc1 [EX 85, (4-(benzo[b]thiophen-4-yl)-1-(4-((2-oxo-1,2-dihydroquinolin-7-yl)oxy)butyl)piperazin-1-ium-1-yl)methyl (6-((4-nitrobenzoyl)oxy)hexyl) phosphate] | 0.00 | 0.04 | 
10 | CCOCCOC(=O)[C@@H](C)OP(=O)([O-])OC[N+]1(CCCCOc2ccc3ccc(=O)[nH]c3c2)CCN(c2cccc3sccc23)CC1 [EX 109, (R)-(4-(benzo[b]thiophen-4-yl)-1-(4-((2-oxo-1.2-dihydroquinolin-7-yl)oxy)butyl)piperazin-1-ium-1-yl)methyl (1-(2-ethoxyethoxy)-1-oxopropan-2-yl) phosphate] | 0.00 | -0.02 | 
11 | CCCCCCOC(=O)OC[N+]1(CCCCOc2ccc3ccc(=O)[nH]c3c2)CCN(c2cccc3sccc23)CC1 [Reference Example 7, reference compound] |  |  | clearly degraded to brexpiprazole
12 | CCCCCCCCOP(=O)([O-])OC[N+]1(CCCCOc2ccc3ccc(=O)[nH]c3c2)CCN(c2cccc3sccc23)CC1 [EX 37, (4-(benzo[b]thiophen-4-yl)-1-(4-((2-oxo-1,2-dihydroquinolin-7-yl)oxy)butyl)piperazin-1-ium-1-yl)methyl octyl phosphate] | 0.00 | 0.06 | 
13 | CCCCCCCC(=O)OCOP(=O)([O-])OC[N+]1(CCCCOc2ccc3ccc(=O)[nH]c3c2)CCN(c2cccc3sccc23)CC1 [EX 27, (4-(benzo[b]thiophen-4-yl)-1-(4-((2-oxo-1,2-dihydroquinolin-7-yl)oxy)butyl)piperazin-1-ium-1-yl)methyl ((octanoyloxy)methyl) phosphate] | 0.00 | 0.00 | 
14 | CCCCCC(=O)OC[N+]1(CCCCOc2ccc3ccc(=O)[nH]c3c2)CCN(c2cccc3sccc23)CC1.[I-] [REX 6, 4-(Benzo[b]thiophen-4-yl)-1-((hexanoyloxy)methyl)-1-(4-((2-oxo-1,2-dihydroquinolin-7-yl)oxy)butyl)piperazin-1-ium iodide, reference compound] | 0.21 | 0.22 | 
15 | CC(C)(C)OP(=O)([O-])OC[N+]1(CCCCOc2ccc3ccc(=O)[nH]c3c2)CCN(c2cccc3sccc23)CC1 [EX 4, (4-(benzo[b]thiophen-4-yl)-1-(4-((2-oxo-1,2-dihydroquinolin-7-yl)oxy)butyl)piperazin-1-ium-1-yl)methyl tert-butyl phosphate] | 0.00 | 0.02 | 
16 | O=C(OCOP(=O)([O-])OC[N+]1(CCCCOc2ccc3ccc(=O)[nH]c3c2)CCN(c2cccc3sccc23)CC1)C12CC3CC(CC(C3)C1)C2 [EX 124, (((1s,3s)-adamantane-1-carbonyl)oxy)methyl ((4-(benzo[b]thiophen-4-yl)-1-(4-((2-oxo-1,2-dihydroquinolin-7-yl)oxy)butyl)piperazin-1-ium-1-yl)methyl) phosphate] | 0.00 | 0.10 | 

Source: US20260285888A1, “HETEROCYCLIC COMPOUND AND USE THEREOF” (OTSUKA PHARMACEUTICAL CO., LTD., priority 2023, published 2026)
